Laboratory results: PubChem BioAssay (NCI)
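Method: 48-hour compound exposure of cells in 96-well plates, five concentrations, linear interpolation of endpoints. GI50 = concentration required for 50% inhibition of growth. TGI denotes the concentration required for complete inhibition of growth.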

Tests used:
Experiment in all cases: NCI tumour cell line growth inhibition, 48 h
[1] = tested on: HL-60(TB) leukemia
[2] = tested on: NCI-H226 lung
[3] = tested on: A498 renal
[4] = tested on: SNB-19 CNS
[5] = tested on: SNB-75 CNS
[6] = tested on: MALME-3M melanoma
[7] = tested on: U251 CNS
[8] = tested on: OVCAR-3 ovarian
[9] = tested on: HCT-15 colon
[10] = tested on: SR leukemia
[11] = tested on: RPMI-8226 leukemia
[12] = tested on: T-47D breast
[13] = tested on: PC-3 prostate
[14] = tested on: HS 578T breast
[15] = tested on: MCF7 breast
[16] = tested on: IGROV1 ovarian
[17] = tested on: SW-620 colon
[18] = tested on: UACC-62 melanoma
[19] = tested on: OVCAR-4 ovarian
[20] = tested on: HCC-2998 colon
[21] = tested on: UACC-257 melanoma
[22] = tested on: RXF 393 renal
[23] = tested on: SF-268 CNS
[24] = tested on: LOX IMVI melanoma
[25] = tested on: MDA-MB-231 breast
[26] = tested on: NCI-H460 lung
[27] = tested on: SN12C renal
[28] = tested on: SF-295 CNS
[29] = tested on: CAKI-1 renal
[30] = tested on: HT29 colon
[31] = tested on: 786-0 renal
[32] = tested on: M14 melanoma
[33] = tested on: HCT-116 colon
[34] = tested on: DU-145 prostate
[35] = tested on: A549 NSCLC
[36] = tested on: UO-31 renal
[37] = tested on: EKVX NSCLC
[38] = tested on: OVCAR-5 ovarian
[39] = tested on: SF-539 CNS
[40] = tested on: SK-OV-3 ovarian
[41] = tested on: K-562 leukemia
[42] = tested on: NCI/ADR-RES ovarian
[43] = tested on: MOLT-4 leukemia
[44] = tested on: BT-549 breast
[45] = tested on: HOP-92 NSCLC
[46] = tested on: COLO 205 colon
[47] = tested on: TK-10 renal
[48] = tested on: SK-MEL-28 melanoma
[49] = tested on: CCRF-CEM leukemia
[50] = tested on: NCI-H522 lung
[51] = tested on: ACHN renal
[52] = tested on: NCI-H23 lung
[53] = tested on: MDA-MB-435
[54] = tested on: HOP-62 NSCLC
[55] = tested on: SK-MEL-2 melanoma
[56] = tested on: SK-MEL-5 melanoma
[57] = tested on: OVCAR-8 ovarian
[58] = tested on: KM12 colon

Compound: COc1cc(Nc2ncc3c(C)nc(-c4cccc(C(F)(F)F)c4)n3n2)cc(OC)c1OC
- GI50 [1]: 6.91 µM
- TGI [1]: 16 µM
- GI50 [2]: 4.14 µM
- TGI [2]: 7.72 µM
- GI50 [3]: 0.305 µM
- TGI [3]: 5.86 µM
- GI50 [4]: 4.64 µM
- TGI [4]: 8.51 µM
- GI50 [5]: 3.09 µM
- TGI [5]: 8.42 µM
- GI50 [6]: 4.39 µM
- TGI [6]: 9.17 µM
- GI50 [7]: 3.71 µM
- TGI [7]: 7.06 µM
- GI50 [8]: 4.28 µM
- TGI [8]: 7.72 µM
- GI50 [9]: 3.78 µM
- TGI [9]: 8.2 µM
- GI50 [10]: 6.36 µM
- TGI [10]: 17.5 µM
- GI50 [11]: 6.45 µM
- TGI [11]: 19.7 µM
- GI50 [12]: 2.95 µM
- TGI [12]: 6.58 µM
- GI50 [13]: 4.32 µM
- TGI [13]: 10.6 µM
- GI50 [14]: 3.77 µM
- TGI [14]: 13.6 µM
- GI50 [15]: 4.14 µM
- TGI [15]: 7.82 µM
- GI50 [16]: 3.49 µM
- TGI [16]: 11.2 µM
- GI50 [17]: 3.72 µM
- TGI [17]: 7.62 µM
- GI50 [18]: 3.15 µM
- TGI [18]: 6.34 µM
- GI50 [19]: 4.48 µM
- TGI [19]: 9.81 µM
- GI50 [20]: 4.01 µM
- TGI [20]: 7.86 µM
- GI50 [21]: 3.88 µM
- TGI [21]: 7.46 µM
- GI50 [22]: 1.81 µM
- TGI [22]: 5.42 µM
- GI50 [23]: 4.19 µM
- TGI [23]: 8.1 µM
- GI50 [24]: 3.74 µM
- TGI [24]: 7.58 µM
- GI50 [25]: 3.33 µM
- TGI [25]: 6.97 µM
- GI50 [26]: 4.46 µM
- TGI [26]: 13.6 µM
- GI50 [27]: 3.54 µM
- TGI [27]: 7.14 µM
- GI50 [28]: 3.86 µM
- TGI [28]: 8.15 µM
- GI50 [29]: 0.747 µM
- TGI [29]: 13.6 µM
- GI50 [30]: 4.15 µM
- TGI [30]: 7.69 µM
- GI50 [31]: 3.96 µM
- TGI [31]: 7.92 µM
- GI50 [32]: 4.03 µM
- TGI [32]: 8.07 µM
- GI50 [33]: 3.49 µM
- TGI [33]: 6.73 µM
- GI50 [34]: 3.13 µM
- TGI [34]: 6.26 µM
- GI50 [35]: 3.51 µM
- TGI [35]: 6.98 µM
- GI50 [36]: 1.82 µM
- TGI [36]: 6.18 µM
- GI50 [37]: 4.19 µM
- TGI [37]: 8 µM
- GI50 [38]: 3.65 µM
- TGI [38]: 7.5 µM
- GI50 [39]: 3.98 µM
- TGI [39]: 8.34 µM
- GI50 [40]: 2.24 µM
- TGI [40]: 6.86 µM
- GI50 [41]: 6.62 µM
- TGI [41]: 19.6 µM
- GI50 [42]: 4.23 µM
- TGI [42]: 11 µM
- GI50 [43]: 6.85 µM
- TGI [43]: 15.4 µM
- GI50 [44]: 4.05 µM
- TGI [44]: 8.03 µM
- GI50 [45]: 1.74 µM
- TGI [45]: 5.99 µM
- GI50 [46]: 4.07 µM
- TGI [46]: 7.49 µM
- GI50 [47]: 2.98 µM
- TGI [47]: 6.19 µM
- GI50 [48]: 4.44 µM
- TGI [48]: 8.25 µM
- GI50 [49]: 5.87 µM
- TGI [49]: 19 µM
- GI50 [50]: 4.18 µM
- TGI [50]: 8.12 µM
- GI50 [51]: 1.95 µM
- TGI [51]: 5.78 µM
- GI50 [52]: 4.07 µM
- TGI [52]: 8.61 µM
- GI50 [53]: 2.58 µM
- TGI [53]: 5.78 µM
- GI50 [54]: 3.84 µM
- TGI [54]: 7.51 µM
- GI50 [55]: 3.25 µM
- TGI [55]: 7.28 µM
- GI50 [56]: 3.32 µM
- TGI [56]: 6.51 µM
- GI50 [57]: 4.09 µM
- TGI [57]: 8.91 µM
- GI50 [58]: 3.05 µM
- TGI [58]: 6.23 µM
